Experimental data reported in patent publication US20160281125A1, “ANTIMICROBIAL COMPOUND SUSCEPTIBILITY TEST” (priority 2013, published 2016).

Legend:
K. pneumo KPC 12213 = assay: Selective lysis test, OD600 turbidity (Example 1); type: cell-based, Klebsiella pneumoniae
Protocol: (§1) An isolated colony from an overnight Tryptocase Soy Agar (TSA) plate of each bacterial strain was suspended in 1 ml Tryptocasc Soy Broth (TSB) in a 5 ml BD polystyrene round bottom tube. TSB cultures were incubated shaking at 37° C. overnight. Ten of the overnight culture was inoculated into lml TSB and incubated shaking at 37° C. for three hours. Two […] aliquots of each log-phase culture were then transferred to two 2 ml Eppendorf microcentrifuge tubes. One tube contained 5000 of Normal Saline (BD); the second tube contained 5000 Normal Saline with meropenem at 10 μg/ml (final concentration of meropenem of 6.67 10 μg/ml). Tubes were inverted and then incubated at 37° C. stagnant for thirty minutes. Then […] of lysis buffer (0.5% SDS in PSB) (final concentration of SDS of 0.125%) was added to each tube and the tubes were vortexed for 5 seconds. Post incubation, all tubes were spun at 10000 G for 5 minutes. Supernatant was decanted and the pellet resuspended in Normal Saline. Tubes were vortexed again. OD600 was measured using Eppendorf uvettes in a spectrophotometer. The delta between the OD600 of the normal saline control and the OD600 for the test sample exposed to meropenem in normal saline was used to determine susceptibility of the bacterial strain to meropenem.
(§2) The tested resistant strains were Klebsiella pneumoniae carbapenemase (KPC)-producing bacteria (abbreviated “KPC”), KPC-producing Klebsiella oxytoca (abbreviated “KPC K. oxy), and Klebsiella pneumoniae producing Metallo-beta-lactamase-1 (NDM-1) (abbreviated “NDM”).

K. pneumo KPC 1705 = assay: Selective lysis test, OD600 turbidity (Example 1); type: cell-based, Klebsiella pneumoniae
Protocol: as §1, §2

K. pneumo KPC 41217 = assay: Selective lysis test, OD600 turbidity (Example 1); type: cell-based, Klebsiella pneumoniae
Protocol: as §1, §2

K. pneumo KPC 4121 = assay: Selective lysis test, OD600 turbidity (Example 1); type: cell-based, Klebsiella pneumoniae
Protocol: as §1, §2

K. pneumo NDM 2146 = assay: Selective lysis test, OD600 turbidity (Example 1); type: cell-based, Klebsiella pneumoniae
Protocol: as §1, §2

K. oxy strain 43086 = assay: Selective lysis test, BacUni QuickFISH staining (Example 3); type: cell-based, K. oxytoca; conditions: FIG. 4; K. oxy 43086; meropenem 10 μg/ml, 30 min, SDS lysis
Source text: An alternative to the spectrophotometer-based measurement of changes in turbidity for measuring cell lysis following treatment with the cell lysis conditions in Examples 1 and 2 is to stain samples using a stain that distinguishes between intact cells and lysed cells. In this example staining with BacUni QuickFISH™ was used to identify intact (i.e., non-lysed) cells. BacUN1 is a universal bacteria PNA probe that binds to an rRNA sequence present in most Gram-positive and Gram-negative bacteria. The PNA probe binds to universal rRNA in intact bacterial cells and the entire cell will appears green with fluorescent microscopy. If the bacterial cell had been lysed then the rRNA target would have been released from the bacterial cell and even of somewhat labeled it would not appear as a fluorescent bacterial cell.
An isolated colony from an overnight Tryptocase Soy Agar (TSA) plate of each bacteria was suspended in 1 ml Tryptocase Soy Broth (TSB) in a 5 ml BD polystyrene round bottom tube. TSB cultures were incubated at 37° C. overnight. Ten μl of overnight culture was inoculated into 1 ml TSB and incubated shaking at 37° C. for three hours. Two 250 μl aliquots of each log-phase culture was transferred to two 2 ml Eppendorf microcentrifuge tubes. […] The slide was viewed on fluorescence microscope using 60× oil immersion on Dual TxR/FITC. […]

E. coli strain 35218 = assay: Carbapenem test, Triton fixation buffer and BacUni QuickFISH staining (Example 4); type: cell-based; conditions: FIG. 9; E. coli 35218; 10 μg/ml
Protocol: (§3) An isolated colony from an overnight Tryptocase Soy Agar (TSA) plate for each bacteria was suspended in 1 ml Tryptocase Soy Broth (TSB) in a 5 ml BD polystyrene round bottom tube. TSB cultures were incubated at 37° C. for 1.5 hours shaking. […] of each stationary-phase culture were transferred to 2 ml Eppendorf microcentrifuge tubes containing 500 μl of Normal Saline (BD); or 500 μl Normal Saline with imipenem, ertapenem, or meropenem at a concentration of […], […], or 40 μg/ml (26.67 μg/ml final concentration). Tubes were inverted then incubated at 37° C. stagnant for thirty minutes. Then 10 μl from each tube was pipetted onto plain glass slide on a 55° C. heat block, followed by 25 μl fixation buffer (0.5% T×100, 100 mM Tris pH 9, 24% Ethanol, and 10 mM NaCl); slide is incubated until sample is dry. Ten μl of BacUni QuickFISH hybridization buffer was added to each slide followed by a 22×22 mm coverslip. The slide was then incubated at 55° C. for 15 minutes. The slides were viewed on a fluorescence microscope 60× oil immersion on Dual TxR/FITC. Images were taken with a 1 second exposure.
(§4) The control fixation in this experiment has all the same components, except no Triton X-100. This was done to assess whether the selective lysis step is required to resolve a difference between susceptible and resistant bacteria.

[1] = tested on: K. pneumoniae strain 13882; assay: as above; type: cell-based; conditions: K. pneumoniae 13882
Protocol: as §3, §4

[2] = tested on: K. pneumoniae strain BAA2146 NDM+; assay: as above; type: cell-based
Protocol: as §3, §4

[3] = tested on: strains previously considered resistant to meropenem; assay: Selective lysis OD600 test, summary over the strains of Table 2; type: cell-based, Klebsiella pneumoniae, Klebsiella oxytoca; conditions: 8 of the 9 strains of Table 2
Protocol: as §1, with “meropenem. […]” for “meropenem.”

[4] = OD600 vs control without meropenem
[5] = meropenem 10 μg/ml, 30 min, SDS lysis buffer + vortex

C[C@@H](O)[C@H]1C(=O)N2C(C(=O)O)=C(S[C@@H]3CN[C@H](C(=O)N(C)C)C3)[C@H](C)[C@H]12 [meropenem]
R or S (K. pneumo KPC 12213): R
% Change (K. pneumo KPC 12213; [4]): −5%
Mero OD600 (K. pneumo KPC 12213; [5]): 1.454
R or S (K. pneumo KPC 1705): R
% Change (K. pneumo KPC 1705; [4]): −32%
Mero OD600 (K. pneumo KPC 1705; [5]): 1.65
R or S (K. pneumo KPC 41217): R
% Change (K. pneumo KPC 41217; [4]): 5%
Mero OD600 (K. pneumo KPC 41217; [5]): 1.764
R or S (K. pneumo KPC 4121): R
% Change (K. pneumo KPC 4121; [4]): −3%
Mero OD600 (K. pneumo KPC 4121; [5]): 1.734
R or S (K. pneumo NDM 2146): R
% Change (K. pneumo NDM 2146; [4]): 18%
Mero OD600 (K. pneumo NDM 2146; [5]): 1.576
number of BacUni QuickFISH stained cells, treated vs not treated (K. oxy strain 43086): significant reduction in the number of stained cells
test result (susceptibility or resistance) by BacUni QuickFISH staining (E. coli strain 35218): detect susceptibility
BacUni QuickFISH stained intact cells after meropenem and fixation buffer ([1]; FIG. 7, 10 μg/ml meropenem, fixation buffer with 0.5% Triton X-100): near complete absence of BacUni QuickFISH™ stained intact cells
test result (susceptibility or resistance) by BacUni QuickFISH staining ([1]; FIG. 10, 10 μg/ml): detect susceptibility
BacUni QuickFISH stained intact cells after meropenem and fixation buffer ([2]; FIG. 8, 10 μg/ml meropenem, fixation buffer with 0.5% Triton X-100): near complete absence of BacUni QuickFISH™ stained intact cells
test result (susceptibility or resistance) by BacUni QuickFISH staining ([2]; FIG. 11, 10 μg/ml): detect resistance
decrease of OD600 turbidity vs negative control [3]: ≤ 18%
